Laboratory results published in patent publication US20260262643A1, “HERBICIDAL BENZOXAZINES” (FMC CORPORATION, priority 2022, published 2026).

How the values were obtained:
galium = assay: Test C postemergence; type: in vivo, Galium aparine; conditions: 10 days
Procedure, shortened: (§1)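 Soil-applied (pre) and foliar (post, 1–2 leaf, 2–10 cm) sprays; surfactant-containing non-phytotoxic solvent vehicle; loam/sand substrate. Readout: visual % control at 10 d, greenhouse, versus untreated.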

wheat [1] = assay: Test C preemergence; type: in vivo, Triticum aestivum; conditions: 0 to 100 scale (0 no effect, 100 complete control)
Procedure, shortened: as §1

ragweed [2] = assay: Test C preemergence; type: in vivo, Ambrosia artemisiifolia; conditions: 0 to 100 scale (0 no effect, 100 complete control)
Procedure, shortened: as §1

green foxtail [3] = assay: Test C preemergence; type: in vivo, Setaria viridis; conditions: 0 to 100 scale (0 no effect, 100 complete control)
Procedure, shortened: as §1

horseweed = assay: Test C postemergence; type: in vivo, Erigeron canadensis; conditions: 10 days
Procedure, shortened: as §1

kochia [4] = assay: Test C postemergence; type: in vivo, Bassia scoparia; conditions: 10 days
Procedure, shortened: as §1

green foxtail [5] = assay: Test C postemergence; type: in vivo, Setaria viridis; conditions: 10 days
Procedure, shortened: as §1

oat, wild [6] = assay: Test C preemergence; type: in vivo, Avena fatua; conditions: 0 to 100 scale (0 no effect, 100 complete control)
Procedure, shortened: as §1

corn [7] = assay: Test C preemergence; type: in vivo, Zea mays; conditions: 0 to 100 scale (0 no effect, 100 complete control)
Procedure, shortened: as §1

soybean [8] = assay: Test C preemergence; type: in vivo, Glycine max; conditions: 0 to 100 scale (0 no effect, 100 complete control)
Procedure, shortened: as §1

soybean [9] = assay: Test C postemergence; type: in vivo, Glycine max; conditions: 10 days
Procedure, shortened: as §1

ragweed [10] = assay: Test C postemergence; type: in vivo, Ambrosia artemisiifolia; conditions: 10 days
Procedure, shortened: as §1

pigweed, palmer [11] = assay: Test C postemergence; type: in vivo, Amaranthus palmeri; conditions: 10 days
Procedure, shortened: as §1

kochia [12] = assay: Test C preemergence; type: in vivo, Bassia scoparia; conditions: 0 to 100 scale (0 no effect, 100 complete control)
Procedure, shortened: as §1

blackgrass [13] = assay: Test C postemergence; type: in vivo, Alopecurus myosuroides; conditions: 10 days
Procedure, shortened: as §1

barnyardgrass [14] = assay: Test D flooded paddy test; type: in vivo, Echinochloa crus-galli; conditions: 250 g ai/ha, applied to paddy water, visual rating after 13 to 14 days, scale 0 to 100 (0 no effect, 100 complete control)
Procedure, shortened: (§2)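 2-leaf plants; flood 3 cm above soil; compound dosed into paddy water; greenhouse 13–14 d; visual rating vs controls, 0–100 (100 = complete control); dash = not tested.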

corn [15] = assay: Test C postemergence; type: in vivo, Zea mays; conditions: 10 days
Procedure, shortened: as §1

wheat [16] = assay: Test C postemergence; type: in vivo, Triticum aestivum; conditions: 10 days
Procedure, shortened: as §1

ryegrass, Italian [17] = assay: Test C postemergence; type: in vivo, Lolium multiflorum; conditions: 10 days
Procedure, shortened: as §1

blackgrass [18] = assay: Test C preemergence; type: in vivo, Alopecurus myosuroides; conditions: 0 to 100 scale (0 no effect, 100 complete control)
Procedure, shortened: as §1

rice = assay: Test D flooded paddy test; type: in vivo, Oryza sativa; conditions: 250 g ai/ha, applied to paddy water, visual rating after 13 to 14 days, scale 0 to 100 (0 no effect, 100 complete control)
Procedure, shortened: as §2

sedge, umbrella = assay: Test D flooded paddy test; type: in vivo, Cyperus difformis; conditions: 250 g ai/ha, applied to paddy water, visual rating after 13 to 14 days, scale 0 to 100 (0 no effect, 100 complete control)
Procedure, shortened: as §2

ryegrass, Italian [19] = assay: Test C preemergence; type: in vivo, Lolium multiflorum; conditions: 0 to 100 scale (0 no effect, 100 complete control)
Procedure, shortened: as §1

ducksalad = assay: Test D flooded paddy test; type: in vivo, Heteranthera limosa; conditions: 250 g ai/ha, applied to paddy water, visual rating after 13 to 14 days, scale 0 to 100 (0 no effect, 100 complete control)
Procedure, shortened: as §2

barnyardgrass [20] = assay: Test C postemergence; type: in vivo, Echinochloa crusgalli; conditions: 10 days
Procedure, shortened: as §1

barnyardgrass [21] = assay: Test C preemergence; type: in vivo, Echinochloa crusgalli; conditions: 0 to 100 scale (0 no effect, 100 complete control)
Procedure, shortened: as §1

oat, wild [22] = assay: Test C postemergence; type: in vivo, Avena fatua; conditions: 10 days
Procedure, shortened: as §1

pigweed, palmer [23] = assay: Test C preemergence; type: in vivo, Amaranthus palmeri; conditions: 0 to 100 scale (0 no effect, 100 complete control)
Procedure, shortened: as §1

[24] = 125 g ai/ha, postemergence, 0 to 100 scale, 0 no effect, 100 complete control
[25] = Postemergence, 500 g ai/ha, visual 0 to 100 scale (0 no effect, 100 complete control)
[26] = Preemergence, 500 g ai/ha, visual rating after 10 days
[27] = Test C, preemergence, 125 g ai/ha

COc1ccc(-n2cnc(C(C)C)n2)cc1C(=O)N1C[C@H](C)Oc2c1cccc2C(F)(F)F [Compound 171]
50: Plant response rating, Foxtail, Green (green foxtail [5]; [25]) | Ryegrass, Italian plant response rating (ryegrass, Italian [19]; [27]) | Plant response rating, Oat, Wild (oat, wild [22]; [25])
10: Plant response rating, Wheat (wheat [16]; [24]) | Plant response rating, Oat, Wild (oat, wild [22]; [24])
60: Ragweed plant response rating (ragweed [2]; [27]) | Soybean plant response rating (soybean [8]; [27]) | Plant response rating, Ragweed (ragweed [10]; [24]) | Plant response rating, Ryegrass, Italian (ryegrass, Italian [17]; [24]) | Plant response rating, Ducksalad (Flood) (ducksalad)
100: Plant response rating, Galium (galium; [24]) | Plant response rating, Galium (galium; [25]) | Plant response rating, Foxtail, Green (green foxtail [3]; [26]) | Foxtail, Green plant response rating (green foxtail [3]; [27]) | Plant response rating, Soybean (soybean [8]; [26]) | Plant response rating, Soybean (soybean [9]; [24]) | Plant response rating, Soybean (soybean [9]; [25]) | Plant response rating, Pigweed, Palmer (pigweed, palmer [11]; [24]) | Plant response rating, Pigweed, Palmer (pigweed, palmer [11]; [25]) | Plant response rating, Barnyardgrass (barnyardgrass [21]; [26]) | Plant response rating, Pigweed, Palmer (pigweed, palmer [23]; [26]) | Pigweed, Palmer plant response rating (pigweed, palmer [23]; [27])
80: Plant response rating, Horseweed (horseweed; [25]) | Plant response rating, Oat, Wild (oat, wild [6]; [26]) | Plant response rating, Blackgrass (blackgrass [13]; [25]) | Plant response rating, Ryegrass, Italian (ryegrass, Italian [17]; [25])
95: Plant response rating, Sedge, Umbrella (Flood) (sedge, umbrella)
70: Oat, Wild plant response rating (oat, wild [6]; [27]) | Plant response rating, Ragweed (ragweed [10]; [25]) | Plant response rating, Blackgrass (blackgrass [18]; [26]) | Blackgrass plant response rating (blackgrass [18]; [27])
30: Corn plant response rating (corn [7]; [27]) | Plant response rating, Blackgrass (blackgrass [13]; [24]) | Plant response rating, Barnyardgrass (barnyardgrass [20]; [24])
20: Plant response rating, Horseweed (horseweed; [24]) | Plant response rating, Corn (corn [15]; [24]) | Plant response rating, Corn (corn [15]; [25])
90: Plant response rating, Wheat (wheat [1]; [26]) | Plant response rating, Ragweed (ragweed [2]; [26]) | Plant response rating, Kochia (kochia [4]; [24]) | Plant response rating, Kochia (kochia [4]; [25]) | Plant response rating, Kochia (kochia [12]; [26]) | Kochia plant response rating (kochia [12]; [27]) | Plant response rating, Ryegrass, Italian (ryegrass, Italian [19]; [26]) | Barnyardgrass plant response rating (barnyardgrass [21]; [27])
0: Plant response rating, Barnyardgrass (Flood) (barnyardgrass [14]) | Plant response rating, Rice (Flood) (rice)
40: Wheat plant response rating (wheat [1]; [27]) | Plant response rating, Foxtail, Green (green foxtail [5]; [24]) | Plant response rating, Corn (corn [7]; [26]) | Plant response rating, Wheat (wheat [16]; [25]) | Plant response rating, Barnyardgrass (barnyardgrass [20]; [25])
